Data: a melting point compilation (Tetko et al.)

Conditions: a range is the spread between reports

Row | SMILES | melting point
1 | O=C(O)Cc1cccc(O)c1 | 130 to 132 °C
2 | BrC1CCCCC1 | -57 to -56.5 °C
3 | COc1ccc(C=O)cc1OC | 43 to 44 °C
4 | OCCCCCCCCCCO | 72 to 74 °C
5 | COc1cc(Cl)cc(Cl)c1 | 40 to 41 °C
6 | N#CCC(=O)O | 66 to 67 °C
7 | OCC(O)C1OC2OC(C(Cl)(Cl)Cl)OC2C1O (stereo not drawn) | 183 to 187 °C
8 | C1=CC2C=CC1C2 | -20 to -19.1 °C
9 | CC(=O)c1ccc(Br)s1 | 94.5 to 95 °C
10 | CCCCCCCCC#N | -34.2 to -34 °C
11 | Oc1cc(Cl)ccc1Cl | 57 to 59 °C
12 | Oc1ccc(C(c2ccc(O)cc2)(C(F)(F)F)C(F)(F)F)cc1 | 160 to 162 °C
13 | O=C(O)COc1ccc(F)cc1 | 104 to 105 °C
14 | C#CC1(O)CCCCC1 | 31.5 to 33 °C
15 | c1ccc(C2CO2)cc1 (stereo not drawn) | -37 to -35.6 °C
16 | CCCCCCCCCCCCCC(=O)OC | 18 to 19 °C
17 | CC(C)(C)c1cccc(O)c1 | 41 to 45 °C
18 | C#CCCCCCCCCCCCCCCCC | 22.5 to 27 °C
19 | CC(=O)Oc1ccccc1OC(C)=O | 64 to 64.5 °C
20 | Nc1cccc(CO)c1 | 93 to 95 °C
21 | O=C(O)c1ccc(O)cc1 | 214 to 217 °C
22 | O=C(O)/C=C/c1ccccc1 | 133 to 135 °C
23 | SCc1ccccc1 | -30 to -29 °C

Row | SMILES | melting point
24 | Cc1ccnc(C)c1 | -64 to -60 °C
25 | Cc1cccc(N)n1 | 41 to 43 °C
26 | COc1ccc(Cl)cc1N | 82 to 83 °C
27 | OCCCCCCCO | 18 to 22.5 °C
28 | O=C1c2ccccc2-c2cccc3cccc1c23 | 170 to 173 °C
29 | CCCCCCCCCCCCN(C)C | -20 to -15 °C
30 | Oc1c(I)cc(I)cc1I | 158 to 160 °C
31 | ClC(Cl)(Cl)Cl | -23 to -22.9 °C
32 | C=CCCC | -165 to -162 °C
33 | N#CCc1ccc(N)cc1 | 44 to 46 °C
34 | NCCCCNCCCN | 23.5 to 24 °C
35 | Cc1cc(O)cc(C)c1Cl | 114 to 115 °C
36 | O=Cc1cc(Cl)cc(Cl)c1 | 63 to 68 °C
37 | CCC(C)C(C)(C)C (stereo not drawn) | -112 °C
38 | CCCN(CC1CC1)c1c([N+](=O)[O-])cc(C(F)(F)F)cc1[N+](=O)[O-] | 32 to 32.5 °C
39 | CCCCCCCCCCCCCCCC | 18 to 18.1 °C
40 | CC(C)CCCCC(C)C | -55 to -54 °C
41 | COC(=O)C(=O)OC | 52 to 54.3 °C
42 | ClCCCCCl | -38 to -37 °C
43 | N#CI | 146 to 147 °C
44 | OC1CCCC1 | -20 to -16.2 °C
45 | O=C(O)CC(O)C(=O)O (stereo not drawn) | 130 to 132 °C
46 | CCc1nc(C)c[nH]1 | 47 to 50.5 °C

More lines, now with the values ahead:

Row | melting point | SMILES
47 | -4 to -2.8 °C | C=CCCCCCCCCCCCCC
48 | 118 to 119 °C | O=C(O)Cc1cccc([N+](=O)[O-])c1
49 | 77 to 78 °C | O=C(O)Cc1cccc(C(F)(F)F)c1
50 | -117 °C | CCCC(C)(C)C(C)C
51 | 68 to 71 °C | Cc1ccc(S(=O)(=O)Cl)cc1
52 | 264 to 265 °C | COC(=O)C1C2CC3c4[nH]c5cc(OC)ccc5c4CCN3CC2CC(OC(=O)c2cc(OC)c(OC)c(OC)c2)C1OC (stereo not drawn)
53 | 164 to 166 °C | CC(C)(C)c1ccc(C(=O)O)cc1
54 | 1.8 to 2 °C | CC(Br)C(C)(Br)Br (stereo not drawn)
55 | -18 to -17 °C | NC1CCCCC1
56 | 73 to 76 °C | O=C(O)C(Cl)=C(Cl)Cl
57 | 73 to 75 °C | O=[N+]([O-])c1cc(F)ccc1O
58 | 36 to 37 °C | CC1(O)CCCC1
59 | 162 to 163 °C | O=C(O)c1ccc([N+](=O)[O-])cc1C(=O)O
60 | -80 to -76 °C | CCOCCOCCO
61 | -8 to -7 °C | CCCCCCCCCCCCS
62 | -116 to -115 °C | CC1CC=CCC1 (stereo not drawn)
63 | 209 to 211 °C | O=C1c2ccccc2C(=O)c2cc(Cl)ccc21
64 | 57.5 to 59 °C | COc1ccccc1OC(=O)c1ccccc1
65 | 152 to 155 °C | Nc1c(Cl)ccc(Cl)c1C(=O)O
66 | 139 to 140 °C | CC(=O)N(O)CCCCCNC(=O)CCC(=O)N(O)CCCCCNC(=O)CCC(=O)N(O)CCCCCN
67 | 43 to 44.5 °C | CCOC(=O)Cc1c[nH]c2ccccc12
68 | 36 to 38 °C | C=C(CC(=O)OC)C(=O)OC
